Experimental data as given in ChEMBL document CHEMBL5233204, “Expanding the repertoire of methanocarba nucleosides from purinergic signaling to diverse targets” (RSC Med Chem, 2021).

Assays:
[1] = test system: Human alphaherpesvirus 1; experiment: Antiviral activity against HSV-1 by plaque reduction neutralization test; assay type: functional, organism-based
[2] = test system: Human alphaherpesvirus 2; experiment: Antiviral activity against HSV-2 by plaque reduction neutralization test; assay type: functional, organism-based
[3] = molecular target: T1, P-gp (ABCB1) (Homo sapiens, UniProt P08183); experiment: Inhibition of P-gp (unknown origin) ATPase activity at 10 uM relative to control
[4] = molecular target: T1, P-gp (ABCB1); experiment: Activation of P-gp (unknown origin) ATPase activity at 10 uM relative to control; settings: read-out: Activity

T1 sequence (P08183 whole entry): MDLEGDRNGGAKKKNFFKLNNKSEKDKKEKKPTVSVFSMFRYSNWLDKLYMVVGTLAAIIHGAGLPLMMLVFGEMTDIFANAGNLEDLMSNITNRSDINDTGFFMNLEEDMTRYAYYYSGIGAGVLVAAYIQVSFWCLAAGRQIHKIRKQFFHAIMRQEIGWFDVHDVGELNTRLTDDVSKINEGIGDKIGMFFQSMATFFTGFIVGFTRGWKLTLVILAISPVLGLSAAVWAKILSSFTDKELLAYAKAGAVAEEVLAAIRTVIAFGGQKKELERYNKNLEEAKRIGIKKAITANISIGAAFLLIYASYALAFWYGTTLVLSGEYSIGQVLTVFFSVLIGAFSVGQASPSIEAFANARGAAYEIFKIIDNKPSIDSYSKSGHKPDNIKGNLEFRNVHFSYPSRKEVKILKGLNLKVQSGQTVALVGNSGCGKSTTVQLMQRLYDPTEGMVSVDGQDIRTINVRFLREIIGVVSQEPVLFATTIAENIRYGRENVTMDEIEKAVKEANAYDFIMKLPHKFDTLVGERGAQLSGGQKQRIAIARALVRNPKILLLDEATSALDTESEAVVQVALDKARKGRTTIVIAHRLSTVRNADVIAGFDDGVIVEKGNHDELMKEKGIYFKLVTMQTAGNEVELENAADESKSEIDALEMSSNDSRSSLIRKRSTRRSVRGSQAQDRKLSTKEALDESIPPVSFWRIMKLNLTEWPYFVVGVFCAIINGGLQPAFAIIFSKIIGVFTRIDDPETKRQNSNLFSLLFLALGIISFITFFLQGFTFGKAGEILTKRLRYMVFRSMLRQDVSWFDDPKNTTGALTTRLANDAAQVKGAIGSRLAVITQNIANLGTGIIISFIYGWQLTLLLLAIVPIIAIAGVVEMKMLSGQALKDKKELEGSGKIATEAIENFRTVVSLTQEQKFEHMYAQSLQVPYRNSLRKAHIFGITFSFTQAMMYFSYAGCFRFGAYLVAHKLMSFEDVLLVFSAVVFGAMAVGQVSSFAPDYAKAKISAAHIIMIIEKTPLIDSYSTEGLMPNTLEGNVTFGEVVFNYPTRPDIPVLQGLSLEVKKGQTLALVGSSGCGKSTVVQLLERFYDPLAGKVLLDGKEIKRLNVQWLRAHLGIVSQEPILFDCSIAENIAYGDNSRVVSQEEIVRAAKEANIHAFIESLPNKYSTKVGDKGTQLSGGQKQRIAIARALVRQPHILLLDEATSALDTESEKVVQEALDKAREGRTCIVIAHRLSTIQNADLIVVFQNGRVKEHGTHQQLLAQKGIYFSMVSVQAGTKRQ

SMILES: Cc1cn([C@H]2C[C@H](O)[C@]3(CO)C[C@H]23)c(=O)[nH]c1=O [(NORTH)-METHANOCARBATHYMIDINE]
- IC50 [1]: 20 nM
- IC50 [2]: 250 nM

SMILES: CNC(=O)[C@]12C[C@@H]1[C@@H](n1cnc3c(N[C@@H]4C[C@H]4c4ccc(F)c(F)c4)nc(C#Cc4ccccc4)nc31)[C@H](O)[C@@H]2O
- inhibition at 10 µM [3]: 53%

SMILES: CNC(=O)[C@]12C[C@@H]1[C@@H](n1cnc3c(NCc4cccc(Cl)c4)nc(C#Cc4ccccc4)nc31)[C@H](O)[C@@H]2O
- activity at 10 µM [4]: 31%
